Experimental findings from US12637453B2, “Pyrazolopyridine inhibitors of c-Jun-n-Terminal kinases and uses thereof” (Dana-Farber Cancer Institute, Inc., priority 2019, dated 2026) are described below.

The structures appear in SMILES notation.

Common to all, as to assay type: biochemical
The target in one experiment is JNK1 (Homo sapiens, UniProt P45983). As to the kind of experiment: IC50 assay for JNK kinase inhibition, JNK1.
A further experiment has as its target JNK2 (Homo sapiens, UniProt P45984). Kind of experiment: IC50 assay for JNK kinase inhibition, JNK2.
The target in another experiment is JNK3 (Homo sapiens, UniProt P53779). As to the kind of experiment: IC50 assay for JNK kinase inhibition, JNK3.
Sequence of JNK3 (P53779 whole entry): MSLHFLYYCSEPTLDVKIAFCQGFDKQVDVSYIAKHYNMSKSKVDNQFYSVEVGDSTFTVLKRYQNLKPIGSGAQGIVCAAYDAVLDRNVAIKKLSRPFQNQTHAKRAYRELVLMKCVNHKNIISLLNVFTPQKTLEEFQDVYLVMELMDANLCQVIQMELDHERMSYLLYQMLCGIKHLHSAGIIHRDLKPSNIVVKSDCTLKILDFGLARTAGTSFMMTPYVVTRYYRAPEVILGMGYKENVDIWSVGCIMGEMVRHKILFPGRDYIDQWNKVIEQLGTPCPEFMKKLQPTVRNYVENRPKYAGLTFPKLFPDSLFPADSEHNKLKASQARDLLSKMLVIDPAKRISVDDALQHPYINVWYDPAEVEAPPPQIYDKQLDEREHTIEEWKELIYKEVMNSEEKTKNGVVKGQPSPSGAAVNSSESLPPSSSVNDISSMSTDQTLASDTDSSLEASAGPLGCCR

Sequence of JNK1 (P45983 whole entry): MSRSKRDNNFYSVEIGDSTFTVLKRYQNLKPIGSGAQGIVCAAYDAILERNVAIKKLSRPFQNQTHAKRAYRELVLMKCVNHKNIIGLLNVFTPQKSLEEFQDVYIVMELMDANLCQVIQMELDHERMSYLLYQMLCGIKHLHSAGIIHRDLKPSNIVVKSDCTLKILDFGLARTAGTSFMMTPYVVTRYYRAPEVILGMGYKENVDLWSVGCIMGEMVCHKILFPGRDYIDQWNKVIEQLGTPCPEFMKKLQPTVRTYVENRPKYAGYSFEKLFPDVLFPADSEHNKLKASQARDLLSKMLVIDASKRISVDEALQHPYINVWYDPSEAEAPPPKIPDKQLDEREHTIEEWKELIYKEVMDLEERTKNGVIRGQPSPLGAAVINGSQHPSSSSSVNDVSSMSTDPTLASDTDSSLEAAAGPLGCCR
Sequence of JNK2 (P45984 whole entry): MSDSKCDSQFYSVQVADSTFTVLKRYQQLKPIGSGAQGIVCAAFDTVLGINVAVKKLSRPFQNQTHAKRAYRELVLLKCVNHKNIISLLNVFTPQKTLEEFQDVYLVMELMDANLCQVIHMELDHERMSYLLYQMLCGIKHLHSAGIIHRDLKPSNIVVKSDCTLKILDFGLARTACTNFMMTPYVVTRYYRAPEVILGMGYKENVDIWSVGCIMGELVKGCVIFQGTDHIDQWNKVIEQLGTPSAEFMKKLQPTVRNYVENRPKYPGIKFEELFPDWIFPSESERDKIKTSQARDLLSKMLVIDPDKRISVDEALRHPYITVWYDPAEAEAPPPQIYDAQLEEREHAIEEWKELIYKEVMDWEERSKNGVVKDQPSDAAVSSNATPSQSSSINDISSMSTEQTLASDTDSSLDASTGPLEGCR

Regarding `CN(C)C/C=C/C(=O)Nc1ccc(C(=O)N2CCC[C@H](Nc3nccc(-c4c(-c5ccccc5)nn5ccccc45)n3)C2)cc1` [I-1, (S,E)-4-(dimethylamino)-N-(4-(3-((4-(2-phenylpyrazolo[1,5-a]pyridin-3-yl)pyrimidin-2-yl)amino)piperidine-1-carbonyl)phenyl)but-2-enamide], the IC50 (commonly the point on the concentration scale where inhibition reaches its midpoint) is 44.7 nM on JNK1, 3.65 nM at JNK2 and 2.36 nM on JNK3.

Take `CN(C)CCCC(=O)Nc1ccc(C(=O)N2CCC[C@H](Nc3nccc(-c4c(-c5ccccc5)nn5ccccc45)n3)C2)cc1` [I-2, (S)-4-(dimethylamino)-N-(4-(3-((4-(2-phenylpyrazolo[1,5-a]pyridin-3-yl)pyrimidin-2-yl)amino)piperidine-1-carbonyl)phenyl)butanamide]: the figures for the IC50 on JNK1, at JNK2 and against JNK3 were 64 nM, 11 nM and 20 nM, respectively.

In the case of `C=CC(=O)Nc1ccc(C(=O)N2CCC[C@H](Nc3nccc(-c4c(-c5ccccc5)nn5ccccc45)n3)C2)cc1` [I-3, (S)-N-(4-(3-((4-(2-phenylpyrazolo[1,5-a]pyridin-3-yl)pyrimidin-2-yl)amino)piperidine-1-carbonyl)phenyl)acrylamide], the IC50 at JNK1 amounted to 26 nM; against JNK2 it was 5.67 nM; at JNK3, 16.2 nM.

In the case of `Nc1ccc(C(=O)N2CCC[C@H](Nc3nccc(-c4c(-c5ccccc5)nn5ccccc45)n3)C2)cc1` [I-4, (S)-(4-aminophenyl)(3-((4-(2-phenylpyrazolo[1,5-a]pyridin-3-yl)pyrimidin-2-yl)amino)piperidin-1-yl)methanone], the figures for the IC50 against JNK1, against JNK2 and at JNK3 were 21.4 nM, 2.88 nM and 22.5 nM, respectively.

As for `CN(C)C/C=C/C(=O)Nc1ccc(C(=O)N2CCC[C@@H](Nc3nccc(-c4c(-c5ccccc5)nn5ccccc45)n3)C2)cc1` [I-5, (R,E)-4-(dimethylamino)-N-(4-(3-((4-(2-phenylpyrazolo[1,5-a]pyridin-3-yl)pyrimidin-2-yl)amino)piperidine-1-carbonyl)phenyl)but-2-enamide], the IC50 against JNK1 was 569 nM; on JNK2, 24 nM; against JNK3, 15 nM.

For the molecule `CN(C)CCCC(=O)Nc1ccc(C(=O)N2CCC[C@@H](Nc3nccc(-c4c(-c5ccccc5)nn5ccccc45)n3)C2)cc1` [I-6, (R)-4-(dimethylamino)-N-(4-(3-((4-(2-phenylpyrazolo[1,5-a]pyridin-3-yl)pyrimidin-2-yl)amino)piperidine-1-carbonyl)phenyl)butanamide], the IC50 at JNK1 is 278 nM; on JNK2, 40 nM; against JNK3, 1090 nM.

Take `CN(C)C/C=C/C(=O)Nc1ccc(C(=O)N2CC[C@@H](Nc3nccc(-c4c(-c5ccccc5)nn5ccccc45)n3)C2)cc1` [I-7, (R,E)-4-(dimethylamino)-N-(4-(3-((4-(2-phenylpyrazolo[1,5-a]pyridin-3-yl)pyrimidin-2-yl)amino)pyrrolidine-1-carbonyl)phenyl)but-2-enamide]: the IC50 against JNK1 is 12.5 nM; against JNK2, 2.75 nM; on JNK3, 25 nM.

`CN(C)CCCC(=O)Nc1ccc(C(=O)N2CC[C@@H](Nc3nccc(-c4c(-c5ccccc5)nn5ccccc45)n3)C2)cc1` [I-8, (R)-4-(dimethylamino)-N-(4-(3-((4-(2-phenylpyrazolo[1,5-a]pyridin-3-yl)pyrimidin-2-yl)amino)pyrrolidine-1-carbonyl)phenyl)butanamide]: the values for the IC50 against JNK1, on JNK2 and against JNK3 were 73.4 nM, 5.59 nM and 21.4 nM, respectively.

For the molecule `CN(C)C/C=C/C(=O)Nc1ccc(C(=O)N2CCCC[C@@H](Nc3nccc(-c4c(-c5ccccc5)nn5ccccc45)n3)C2)cc1` [I-9, (R,E)-4-(dimethylamino)-N-(4-(3-((4-(2-phenylpyrazolo[1,5-a]pyridin-3-yl)pyrimidin-2-yl)amino)azepane-1-carbonyl)phenyl)but-2-enamide], the figures for the IC50 at JNK1, against JNK2 and on JNK3 were 403 nM, 15.9 nM and 96.1 nM, respectively.

Consider `CN(C)CCCC(=O)Nc1ccc(C(=O)N2CCCC[C@@H](Nc3nccc(-c4c(-c5ccccc5)nn5ccccc45)n3)C2)cc1` [I-10, (R)-4-(dimethylamino)-N-(4-(3-((4-(2-phenylpyrazolo[1,5-a]pyridin-3-yl)pyrimidin-2-yl)amino)azepane-1-carbonyl)phenyl)butanamide], for which the IC50 is 243 nM on JNK1, 7.88 nM against JNK2 and 48.1 nM on JNK3.

Regarding `CN(C)C/C=C/C(=O)Nc1ccc(C(=O)N2CC[C@H](Nc3nccc(-c4c(-c5ccccc5)nn5ccccc45)n3)C2)cc1` [I-11, (S,E)-4-(dimethylamino)-N-(4-(3-((4-(2-phenylpyrazolo[1,5-a]pyridin-3-yl)pyrimidin-2-yl)amino)pyrrolidine-1-carbonyl)phenyl)but-2-enamide], the figures for the IC50 against JNK1, on JNK2 and on JNK3 were 152 nM, 4.91 nM and 51.4 nM, respectively.

For the molecule `CN(C)CCCC(=O)Nc1ccc(C(=O)N2CC[C@H](Nc3nccc(-c4c(-c5ccccc5)nn5ccccc45)n3)C2)cc1` [I-12, (S)-4-(dimethylamino)-N-(4-(3-((4-(2-phenylpyrazolo[1,5-a]pyridin-3-yl)pyrimidin-2-yl)amino)pyrrolidine-1-carbonyl)phenyl)butanamide], the IC50 at JNK1 was found to be 320 nM; at JNK2, 17.6 nM; on JNK3 it was 110 nM.

As to `CN(C)C/C=C/C(=O)Nc1ccc(C(=O)N2CCCC[C@H](Nc3nccc(-c4c(-c5ccccc5)nn5ccccc45)n3)C2)cc1` [I-13, (S,E)-4-(dimethylamino)-N-(4-(3-((4-(2-phenylpyrazolo[1,5-a]pyridin-3-yl)pyrimidin-2-yl)amino)azepane-1-carbonyl)phenyl)but-2-enamide], the IC50 stood at 308 nM against JNK1, 31 nM at JNK2 and 20 nM against JNK3.

Regarding `CN(C)CCCC(=O)Nc1ccc(C(=O)N2CCCC[C@H](Nc3nccc(-c4c(-c5ccccc5)nn5ccccc45)n3)C2)cc1` [I-14, (S)-4-(dimethylamino)-N-(4-(3-((4-(2-phenylpyrazolo[1,5-a]pyridin-3-yl)pyrimidin-2-yl)amino)azepane-1-carbonyl)phenyl)butanamide], the IC50 was 314 nM against JNK1, 29 nM at JNK2 and 252 nM at JNK3.

For `CN(C)C/C=C/C(=O)Nc1ccc(C(=O)NC2CCCC(Nc3nccc(-c4c(-c5ccccc5)nn5ccccc45)n3)C2)cc1` (stereo not drawn) [I-15, (E)-4-(4-(dimethylamino)but-2-enamido)-N-(3-((4-(2-phenylpyrazolo[1,5-a]pyridin-3-yl)pyrimidin-2-yl)amino)cyclohexyl)benzamide], the IC50 against JNK1 stood at 481 nM; on JNK2, 38.9 nM; against JNK3, 40.3 nM.

In the case of `CN(C)C/C=C/C(=O)Nc1cccc(C(=O)N2CC[C@H](Nc3nccc(-c4c(-c5ccccc5)nn5ccccc45)n3)C2)c1` [I-16, (S,E)-4-(dimethylamino)-N-(3-(3-((4-(2-phenylpyrazolo[1,5-a]pyridin-3-yl)pyrimidin-2-yl)amino)pyrrolidine-1-carbonyl)phenyl)but-2-enamide], the IC50 was found to be 37.6 nM against JNK1, 6.94 nM against JNK2 and 10.9 nM against JNK3.
